{
  "source": "ChEMBL document CHEMBL1143380",
  "about": "“N-[6-amino-2-(heteroaryl)pyrimidin-4-yl]acetamides as A2A receptor antagonists with improved drug like properties and in vivo efficacy” (J Med Chem, 2009)",
  "key": {"[1]": {"assay": "Drug level in rat brain at 10 mg/kg, po after 2 hrs", "type": "ADME, organism-based", "parameters": "dose 10 mg/kg, route oral", "settings": "read-out: Drug uptake; call rule not given here"}, "[2]": {"assay": "Plasma concentration in rat at 10 mg/kg, po after 2 hrs", "type": "ADME, organism-based", "parameters": "dose 10 mg/kg, route oral"}, "[3]": {"assay": "Tmax in rat at 10 mg/kg, po", "type": "ADME, organism-based", "parameters": "dose 10 mg/kg, route oral", "settings": "in vivo"}, "[4]": {"target": "Cytochrome P450 3A4 (Homo sapiens, UniProt P08684)", "sequence (P08684 whole entry)": "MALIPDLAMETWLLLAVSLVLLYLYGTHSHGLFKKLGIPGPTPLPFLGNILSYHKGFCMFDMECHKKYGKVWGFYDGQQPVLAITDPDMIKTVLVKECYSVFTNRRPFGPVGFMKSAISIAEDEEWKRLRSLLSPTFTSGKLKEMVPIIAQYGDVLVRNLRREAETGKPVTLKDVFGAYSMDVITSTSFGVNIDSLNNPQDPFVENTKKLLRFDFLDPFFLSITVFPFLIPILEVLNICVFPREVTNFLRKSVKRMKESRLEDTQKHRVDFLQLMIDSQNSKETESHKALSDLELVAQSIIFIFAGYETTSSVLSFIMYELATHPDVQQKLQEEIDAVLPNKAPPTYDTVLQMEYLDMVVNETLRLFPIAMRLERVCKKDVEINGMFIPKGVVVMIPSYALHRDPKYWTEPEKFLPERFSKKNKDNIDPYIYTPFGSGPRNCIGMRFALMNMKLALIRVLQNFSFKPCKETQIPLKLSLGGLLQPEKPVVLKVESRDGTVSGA", "assay": "Inhibition of CYP3A4", "type": "ADME"}, "[5]": {"assay": "Plasma concentration in rat at 10 mg/kg, po after 1 hr", "type": "ADME, organism-based", "parameters": "dose 10 mg/kg, route oral"}, "[6]": {"assay": "Ratio of drug level in brain to plasma in rat at 10 mg/kg, po after 2 hrs", "type": "ADME, organism-based", "parameters": "dose 10 mg/kg, route oral", "settings": "brain and plasma"}, "[7]": {"assay": "Solubility at pH 7.4", "type": "physicochemical", "settings": "buffer"}, "[8]": {"target": "Adenosine receptor A2a (Rattus norvegicus, UniProt P30543)", "sequence (P30543 whole entry)": "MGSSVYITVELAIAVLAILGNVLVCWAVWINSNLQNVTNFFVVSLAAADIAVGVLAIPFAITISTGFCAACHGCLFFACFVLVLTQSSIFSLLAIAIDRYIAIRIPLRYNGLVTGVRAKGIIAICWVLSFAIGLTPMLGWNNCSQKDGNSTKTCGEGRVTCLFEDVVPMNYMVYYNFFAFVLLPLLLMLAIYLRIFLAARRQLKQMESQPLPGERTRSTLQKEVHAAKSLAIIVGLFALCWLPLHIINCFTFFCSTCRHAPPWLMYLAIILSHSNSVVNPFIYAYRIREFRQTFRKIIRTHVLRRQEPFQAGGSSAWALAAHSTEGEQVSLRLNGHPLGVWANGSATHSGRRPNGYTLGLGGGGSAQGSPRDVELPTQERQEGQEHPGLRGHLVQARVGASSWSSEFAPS", "assay": "Displacement of [3H]ZM241385 from rat adenosine A2A receptor expressed in CHO cells", "type": "cell-based"}, "[9]": {"assay": "Lipophilicity, log D of the compound", "type": "physicochemical", "settings": "octanol/water"}, "[10]": {"target": "T1, Cytochrome P450 1A2 (Homo sapiens, UniProt P05177)", "T1 sequence (P05177 whole entry)": "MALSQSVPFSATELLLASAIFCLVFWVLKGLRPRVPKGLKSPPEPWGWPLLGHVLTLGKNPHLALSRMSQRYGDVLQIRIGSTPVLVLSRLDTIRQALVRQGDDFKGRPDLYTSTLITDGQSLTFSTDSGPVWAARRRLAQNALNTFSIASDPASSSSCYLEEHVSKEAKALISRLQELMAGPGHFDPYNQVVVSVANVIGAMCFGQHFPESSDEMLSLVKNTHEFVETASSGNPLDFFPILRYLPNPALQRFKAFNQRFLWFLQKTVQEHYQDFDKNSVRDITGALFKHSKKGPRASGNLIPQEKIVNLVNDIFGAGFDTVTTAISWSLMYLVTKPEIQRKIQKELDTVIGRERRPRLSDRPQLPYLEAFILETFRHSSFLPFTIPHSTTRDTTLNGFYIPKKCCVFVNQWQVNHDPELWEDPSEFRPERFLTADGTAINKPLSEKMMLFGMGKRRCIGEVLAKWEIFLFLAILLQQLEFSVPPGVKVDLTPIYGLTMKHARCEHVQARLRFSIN", "assay": "Inhibition of CYP1A2", "type": "ADME"}, "[11]": {"target": "T2, Adenosine receptor A2b (Homo sapiens, UniProt P29275)", "T2 sequence (P29275 whole entry)": "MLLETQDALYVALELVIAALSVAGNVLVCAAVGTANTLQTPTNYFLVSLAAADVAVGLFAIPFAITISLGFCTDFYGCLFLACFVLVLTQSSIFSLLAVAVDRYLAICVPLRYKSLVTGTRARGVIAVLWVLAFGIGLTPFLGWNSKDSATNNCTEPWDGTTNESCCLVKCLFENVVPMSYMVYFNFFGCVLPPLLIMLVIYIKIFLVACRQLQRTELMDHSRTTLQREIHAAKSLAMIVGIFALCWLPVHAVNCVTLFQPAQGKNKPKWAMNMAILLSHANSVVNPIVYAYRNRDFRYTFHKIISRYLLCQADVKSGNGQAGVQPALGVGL", "assay": "Inhibition of human adenosine A2B receptor"}, "[12]": {"assay": "Drug level in rat brain at 3 mg/kg, po after 2 hrs", "type": "ADME, organism-based", "parameters": "dose 3 mg/kg, route oral", "settings": "read-out: Drug uptake"}, "[13]": {"target": "Cytochrome P450 2D6 (Homo sapiens, UniProt P10635)", "sequence (P10635 whole entry)": "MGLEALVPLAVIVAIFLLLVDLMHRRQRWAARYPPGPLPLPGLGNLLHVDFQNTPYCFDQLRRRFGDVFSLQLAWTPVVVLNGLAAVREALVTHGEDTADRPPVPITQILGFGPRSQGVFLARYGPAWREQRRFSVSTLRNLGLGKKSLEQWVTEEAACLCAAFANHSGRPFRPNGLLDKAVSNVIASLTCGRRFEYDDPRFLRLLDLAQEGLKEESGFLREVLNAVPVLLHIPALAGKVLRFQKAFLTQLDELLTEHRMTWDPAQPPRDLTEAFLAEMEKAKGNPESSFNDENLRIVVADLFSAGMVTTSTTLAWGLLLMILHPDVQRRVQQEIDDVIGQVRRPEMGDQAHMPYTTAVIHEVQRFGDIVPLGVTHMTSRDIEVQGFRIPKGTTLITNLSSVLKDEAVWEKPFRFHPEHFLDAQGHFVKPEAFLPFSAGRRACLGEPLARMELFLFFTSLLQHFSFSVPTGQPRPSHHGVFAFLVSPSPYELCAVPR", "assay": "Inhibition of CYP2D6", "type": "ADME"}, "[14]": {"target": "T3, Adenosine receptor A2a (Homo sapiens, UniProt P29274)", "T3 sequence (P29274 whole entry)": "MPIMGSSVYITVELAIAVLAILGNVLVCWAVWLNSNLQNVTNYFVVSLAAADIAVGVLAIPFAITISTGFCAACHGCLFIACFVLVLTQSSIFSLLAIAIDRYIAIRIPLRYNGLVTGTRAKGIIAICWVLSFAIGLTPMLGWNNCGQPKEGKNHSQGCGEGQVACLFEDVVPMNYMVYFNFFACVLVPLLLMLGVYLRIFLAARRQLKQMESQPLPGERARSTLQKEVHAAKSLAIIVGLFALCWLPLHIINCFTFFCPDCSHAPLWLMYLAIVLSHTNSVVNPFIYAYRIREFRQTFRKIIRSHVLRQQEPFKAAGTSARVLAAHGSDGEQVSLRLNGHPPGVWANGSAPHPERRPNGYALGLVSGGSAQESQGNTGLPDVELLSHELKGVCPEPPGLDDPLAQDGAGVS", "assay": "Antagonist activity at human adenosine A2A receptor assessed as inhibition of CGS-21680-stimulated cAMP production", "type": "functional"}, "[15]": {"target": "hERG (KCNH2) (Homo sapiens, UniProt Q12809)", "sequence (Q12809 whole entry)": "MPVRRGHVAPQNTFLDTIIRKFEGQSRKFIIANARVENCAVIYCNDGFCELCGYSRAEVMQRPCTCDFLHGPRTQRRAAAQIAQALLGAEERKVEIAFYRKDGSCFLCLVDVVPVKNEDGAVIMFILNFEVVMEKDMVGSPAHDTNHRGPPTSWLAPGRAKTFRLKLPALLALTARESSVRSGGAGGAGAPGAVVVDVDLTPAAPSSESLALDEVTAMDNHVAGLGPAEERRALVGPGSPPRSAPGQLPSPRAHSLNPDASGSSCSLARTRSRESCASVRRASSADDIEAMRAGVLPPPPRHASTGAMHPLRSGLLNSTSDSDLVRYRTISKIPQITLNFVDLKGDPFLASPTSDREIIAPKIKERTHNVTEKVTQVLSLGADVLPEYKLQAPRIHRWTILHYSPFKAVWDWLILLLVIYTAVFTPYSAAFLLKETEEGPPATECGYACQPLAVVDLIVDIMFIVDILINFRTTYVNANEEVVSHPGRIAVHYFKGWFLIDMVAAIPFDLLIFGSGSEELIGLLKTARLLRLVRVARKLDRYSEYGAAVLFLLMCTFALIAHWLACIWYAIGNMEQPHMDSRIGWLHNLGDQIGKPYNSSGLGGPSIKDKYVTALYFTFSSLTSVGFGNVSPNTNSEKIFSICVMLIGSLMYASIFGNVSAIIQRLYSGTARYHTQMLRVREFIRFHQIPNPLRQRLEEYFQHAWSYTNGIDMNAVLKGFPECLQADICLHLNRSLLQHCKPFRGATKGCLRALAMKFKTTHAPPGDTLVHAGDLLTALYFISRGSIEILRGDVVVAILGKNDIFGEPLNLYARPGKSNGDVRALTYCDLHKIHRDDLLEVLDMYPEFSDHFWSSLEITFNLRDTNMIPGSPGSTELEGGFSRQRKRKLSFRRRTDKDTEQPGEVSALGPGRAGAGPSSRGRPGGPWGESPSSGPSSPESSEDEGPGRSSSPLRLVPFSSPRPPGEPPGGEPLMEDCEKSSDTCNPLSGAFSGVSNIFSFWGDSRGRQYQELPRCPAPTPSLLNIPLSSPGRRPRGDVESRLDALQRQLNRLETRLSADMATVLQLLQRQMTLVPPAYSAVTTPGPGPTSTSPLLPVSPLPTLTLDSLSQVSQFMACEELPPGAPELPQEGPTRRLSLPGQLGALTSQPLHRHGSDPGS", "assay": "Inhibition of human ERG at 10 uM by patch clamp technique"}, "[16]": {"target": "T4, Adenosine receptor A1 (Homo sapiens, UniProt P30542)", "T4 sequence (P30542 whole entry)": "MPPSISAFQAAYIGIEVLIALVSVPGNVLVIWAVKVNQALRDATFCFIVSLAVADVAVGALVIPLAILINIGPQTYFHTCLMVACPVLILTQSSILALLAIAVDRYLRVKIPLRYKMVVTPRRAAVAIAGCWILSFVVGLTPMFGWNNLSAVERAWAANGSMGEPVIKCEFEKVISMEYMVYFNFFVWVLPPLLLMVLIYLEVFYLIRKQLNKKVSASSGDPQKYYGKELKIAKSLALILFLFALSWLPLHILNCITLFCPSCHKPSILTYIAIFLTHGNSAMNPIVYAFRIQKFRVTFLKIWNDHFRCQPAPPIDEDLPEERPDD", "assay": "Displacement of [3H]DPCPX from human adenosine A1 receptor expressed in HEK293 cells", "type": "cell-based"}, "[17]": {"assay": "Ratio of drug level in brain to plasma in rat at 10 mg/kg, po after 4 hrs", "type": "ADME, organism-based", "parameters": "dose 10 mg/kg, route oral", "settings": "brain and plasma, read-out: BPR"}, "[18]": {"assay": "Plasma concentration in rat at 3 mg/kg, po after 2 hrs", "type": "ADME, organism-based", "parameters": "dose 3 mg/kg, route oral"}, "[19]": {"assay": "Ratio of drug level in brain to plasma in rat at 30 mg/kg, po after 2 hrs", "type": "ADME, organism-based", "parameters": "dose 30 mg/kg, route oral", "settings": "brain and plasma"}, "[20]": {"assay": "Drug level in rat brain at 10 mg/kg, po after 4 hrs", "type": "ADME, organism-based", "parameters": "dose 10 mg/kg, route oral", "settings": "read-out: Drug uptake"}, "[21]": {"target": "T5, Adenosine receptor A3 (Homo sapiens, UniProt P0DMS8)", "T5 sequence (P0DMS8 whole entry)": "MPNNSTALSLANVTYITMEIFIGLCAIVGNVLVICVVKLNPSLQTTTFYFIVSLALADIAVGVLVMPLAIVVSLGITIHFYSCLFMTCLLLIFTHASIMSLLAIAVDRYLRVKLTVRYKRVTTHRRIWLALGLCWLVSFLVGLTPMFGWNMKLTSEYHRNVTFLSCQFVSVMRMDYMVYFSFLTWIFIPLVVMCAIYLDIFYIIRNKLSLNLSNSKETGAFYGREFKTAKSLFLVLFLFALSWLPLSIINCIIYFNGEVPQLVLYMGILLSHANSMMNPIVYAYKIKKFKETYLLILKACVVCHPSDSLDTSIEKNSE", "assay": "Inhibition of human adenosine A3 receptor"}, "[22]": {"test_system": "Caco-2", "assay": "Ratio of permeability from apical to basolateral side over basolateral to apical side in human Caco-2 cells", "type": "ADME, cell-based"}, "[23]": {"target": "T3, Adenosine receptor A2a", "assay": "Displacement of [3H]ZM241385 from human adenosine A2A receptor expressed in HEK293 cells", "type": "cell-based"}, "[24]": {"target": "Cytochrome P450 2C19 (Homo sapiens, UniProt P33261)", "sequence (P33261 whole entry)": "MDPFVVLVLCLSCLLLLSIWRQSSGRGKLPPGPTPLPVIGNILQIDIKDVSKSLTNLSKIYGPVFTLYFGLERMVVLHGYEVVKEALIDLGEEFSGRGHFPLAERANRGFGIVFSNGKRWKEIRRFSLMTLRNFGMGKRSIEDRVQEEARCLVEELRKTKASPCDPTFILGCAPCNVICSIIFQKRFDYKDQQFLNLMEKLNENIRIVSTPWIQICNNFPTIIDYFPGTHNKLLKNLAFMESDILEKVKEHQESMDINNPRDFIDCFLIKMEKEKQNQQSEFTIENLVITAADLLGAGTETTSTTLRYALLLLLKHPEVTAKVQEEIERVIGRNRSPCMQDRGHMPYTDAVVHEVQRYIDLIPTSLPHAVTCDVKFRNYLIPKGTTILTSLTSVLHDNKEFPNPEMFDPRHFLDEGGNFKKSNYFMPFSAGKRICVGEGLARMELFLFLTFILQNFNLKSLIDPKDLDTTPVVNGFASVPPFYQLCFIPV", "assay": "Inhibition of CYP2C19", "type": "ADME"}, "[25]": {"assay": "Plasma concentration in rat at 30 mg/kg, po after 2 hrs", "type": "ADME, organism-based", "parameters": "dose 30 mg/kg, route oral"}, "[26]": {"assay": "Ratio of drug level in brain to plasma in rat at 3 mg/kg, po after 2 hrs", "type": "ADME, organism-based", "parameters": "dose 3 mg/kg, route oral", "settings": "brain and plasma"}, "[27]": {"assay": "Ratio of drug level in brain to plasma in rat at 10 mg/kg, po after 1 hr", "type": "ADME, organism-based", "parameters": "dose 10 mg/kg, route oral", "settings": "brain and plasma, read-out: BPR"}, "[28]": {"assay": "Plasma concentration in rat at 10 mg/kg, po after 4 hrs", "type": "ADME, organism-based", "parameters": "dose 10 mg/kg, route oral"}, "[29]": {"test_system": "Rattus norvegicus", "assay": "Inhibition of haloperidol-induced catalepsy in rat assessed as reduction in descent latency at 30 mg/kg, po after 2 hrs", "type": "organism-based", "parameters": "dose 30 mg/kg, route oral", "settings": "in vivo"}, "[30]": {"assay": "Drug level in rat brain at 30 mg/kg, po after 2 hrs", "type": "ADME, organism-based", "parameters": "dose 30 mg/kg, route oral", "settings": "read-out: Drug uptake"}, "[31]": {"assay": "Drug level in rat brain at 10 mg/kg, po after 1 hr", "type": "ADME, organism-based", "parameters": "dose 10 mg/kg, route oral", "settings": "read-out: Drug uptake"}, "[32]": {"test_system": "Rattus norvegicus", "assay": "Inhibition of haloperidol-induced catalepsy in rat assessed as reduction in descent latency at 10 mg/kg, po after 2 hrs", "type": "organism-based", "parameters": "dose 10 mg/kg, route oral", "settings": "in vivo"}, "[33]": {"assay": "Permeability across human Caco-2 cells", "type": "ADME, cell-based", "settings": "read-out: permeability"}, "[34]": {"target": "Cytochrome P450 2C9 (Homo sapiens, UniProt P11712)", "sequence (P11712 whole entry)": "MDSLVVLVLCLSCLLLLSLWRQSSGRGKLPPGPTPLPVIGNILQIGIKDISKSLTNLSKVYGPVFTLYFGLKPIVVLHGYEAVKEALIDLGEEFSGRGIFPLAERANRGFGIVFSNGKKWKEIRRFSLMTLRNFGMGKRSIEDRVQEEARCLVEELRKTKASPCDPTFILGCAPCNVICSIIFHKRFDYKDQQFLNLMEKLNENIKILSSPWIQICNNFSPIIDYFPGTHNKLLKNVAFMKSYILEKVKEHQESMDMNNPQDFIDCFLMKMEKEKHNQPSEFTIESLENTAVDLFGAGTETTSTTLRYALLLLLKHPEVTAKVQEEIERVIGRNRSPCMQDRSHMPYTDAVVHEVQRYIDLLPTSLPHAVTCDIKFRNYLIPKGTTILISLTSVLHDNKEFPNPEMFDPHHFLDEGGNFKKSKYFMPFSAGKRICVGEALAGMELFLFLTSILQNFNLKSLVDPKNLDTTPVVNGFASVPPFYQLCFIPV", "assay": "Inhibition of CYP2C9", "type": "ADME"}, "[35]": {"test_system": "Rattus norvegicus", "assay": "Potentiation of […]-induced rotational behavior in unilateral 6-hydroxydopamine lesioned po dosed rat after 5 hrs", "type": "ADME, organism-based", "settings": "in vivo"}},
  "data": [
    {"smiles": "COC[C@H]1CCCN1c1cc(NC(C)=O)nc(-n2nc(C)cc2C)n1", "values": [
      {"measurement": "concentration at 2 h", "setting": "[1]", "value": 488, "unit": "ng/g"},
      {"measurement": "concentration at 2 h", "setting": "[2]", "value": 1060, "unit": "ng/mL"},
      {"measurement": "Tmax", "setting": "[3]", "value": 54, "unit": "min"},
      {"measurement": "IC50", "setting": "[4]", "value": "> 50", "unit": "µM"},
      {"measurement": "concentration at 1 h", "setting": "[5]", "value": 1600, "unit": "ng/mL"},
      {"measurement": "Kp at 2 h", "setting": "[6]", "value": 0.46},
      {"measurement": "solubility", "setting": "[7]", "value": 1000, "unit": "µg/mL"},
      {"measurement": "Ki", "setting": "[8]", "value": 0.048, "unit": "µM"},
      {"measurement": "logD", "setting": "[9]", "value": 2.2},
      {"measurement": "IC50", "setting": "[10]", "value": 11, "unit": "µM"},
      {"measurement": "Ki", "setting": "[11]", "value": 0.145, "unit": "µM"},
      {"measurement": "concentration at 2 h", "setting": "[12]", "value": 34, "unit": "ng/g"},
      {"measurement": "IC50", "setting": "[13]", "value": "> 50", "unit": "µM"},
      {"measurement": "IC50", "setting": "[14]", "value": 0.085, "unit": "µM"},
      {"measurement": "inhibition at 10 µM", "setting": "[15]", "value": 19, "unit": "%"},
      {"measurement": "Ki", "setting": "[16]", "value": 0.162, "unit": "µM"},
      {"measurement": "Kp at 4 h", "setting": "[17]", "value": 0.33},
      {"measurement": "concentration at 2 h", "setting": "[18]", "value": 98, "unit": "ng/mL"},
      {"measurement": "Kp at 2 h", "setting": "[19]", "value": 0.45},
      {"measurement": "concentration at 4 h", "setting": "[20]", "value": 116, "unit": "ng/g"},
      {"measurement": "Ki", "setting": "[21]", "value": 0.019, "unit": "µM"},
      {"measurement": "Ratio", "setting": "[22]", "value": 0.7},
      {"measurement": "Ki", "setting": "[23]", "value": 0.0047, "unit": "µM"},
      {"measurement": "IC50", "setting": "[24]", "value": "> 50", "unit": "µM"},
      {"measurement": "concentration at 2 h", "setting": "[25]", "value": 4640, "unit": "ng/mL"},
      {"measurement": "Kp at 2 h", "setting": "[26]", "value": 0.37},
      {"measurement": "Kp at 1 h", "setting": "[27]", "value": 0.51},
      {"measurement": "concentration at 4 h", "setting": "[28]", "value": 333, "unit": "ng/mL"},
      {"measurement": "Activity", "setting": "[29]", "value": "Active"},
      {"measurement": "concentration at 2 h", "setting": "[30]", "value": 2020, "unit": "ng/g"},
      {"measurement": "concentration at 1 h", "setting": "[31]", "value": 863, "unit": "ng/g"},
      {"measurement": "Activity", "setting": "[32]", "value": "Active"},
      {"measurement": "Papp", "setting": "[33]", "value": 70, "unit": "×10⁻⁶ cm/s"},
      {"measurement": "IC50", "setting": "[34]", "value": "> 50", "unit": "µM"},
      {"measurement": "Activity", "setting": "[35]", "value": "Dose-dependent effect"}
    ]}
  ]
}
